The text below walks through data of US5885814A, “Vaccine containing a serine protease” (priority 1993, dated 1999).

Where two headings read alike, the source gives them in different places. Square brackets hold non-standard residues; d marks the D form. Peptide text beside a SMILES is read from it. * marks the point of attachment. Sta = CC(C)C[C@H](N)[C@@H](O)CC(=O)O; Isovaleryl = CC(C)CC(=O)* Bounds are passed on as bounds.

The subject of data set [1] is DPP-like protease from F. hepatica E/S products. Type of data set: biochemical, Fasciola hepatica. As to the method:
The assay mixture contained 200 μl of 20 μM substrate, 100 μl of enzyme solution and 900 μl of 50 mM Hepes, pH 6.8. The reaction was allowed to proceed at 37° C. and stopped by the addition of 200 μl of 1.7M acetic acid. The liberated AMC was measured in a fluorometer with excitation and emission wavelengths of 370 nm and 440 nm, respectively.
The effect of various metal ions on the hydrolytic activity of the enzyme was examined using both gly-pro-AMC and lys-ala-AMC as substrates in assays as described above.

The subject of a further data set is Mammalian DPP2. Particulars: J. Biol. Chem. 263 (1988), 6613-6618; cited from earlier work.
Another data set deals with Mammalian DPP4. As to conditions: J. Biol. Chem. 263 (1988), 6613-6618; cited from earlier work.
[2] abbreviates: gly-pro-AMC and lys-ala-AMC as substrates.
The mark [3] stands for this setting: substance 5 μg/ml, substrate Gly-Pro-AMC.
Setting [4] is: substance 5 μg/ml, substrate Lys-Ala-AMC.
Setting [5] is: substance 0.02 mM, substrate Gly-Pro-AMC.
[6] abbreviates: substance 0.02 mM, substrate Lys-Ala-AMC.
The mark [7] stands for this setting: substance 0.1 mM, substrate Gly-Pro-AMC.
Setting [8] is: substance 0.1 mM, substrate Lys-Ala-AMC.
Where [9] appears, read: concentration of 5 mM, gly-pro-AMC and lys-ala-AMC as substrates.
The mark [10] stands for this setting: substance 1 mM, substrate Gly-Pro-AMC.
The mark [11] stands for this setting: substance 1 mM, substrate Lys-Ala-AMC.
Where [12] appears, read: substance 5 mM, substrate Gly-Pro-AMC.
The mark [13] stands for this setting: substance 5 mM, substrate Lys-Ala-AMC.
Setting [14] is: substance 0.5 mM, substrate Gly-Pro-AMC.
Setting [15] is: substance 0.5 mM, substrate Lys-Ala-AMC.

Turning to aprotinin, the “effect on enzyme activity (in words)” value in data set [1] (setting [2]) is on record as “not inhibited”. Also, the “Activity remaining (%) Gly-Pro” value in data set [1] (setting [3]) turned out to be 109%. In data set [1] (setting [4]), the “Activity remaining (%) Lys-Ala” value is on record as 116%.

Take `COc1ccc(C[C@H](N)C(=O)N[C@H]2[C@@H](O)[C@H](n3cnc4c(N(C)C)ncnc43)O[C@@H]2CO)cc1` [Puromycin, puromycin]: the “effect on enzyme activity (in words)” value in data set [1] (setting [2]) is listed as “neither showed any inhibitory effect”. Besides, the “Activity remaining (%) Gly-Pro” value in data set [1] (setting [5]) and in data set [1] (setting [7]) was 100% each time. Moreover, the “Activity remaining (%) Lys-Ala” value in data set [1] (setting [6]) and in data set [1] (setting [8]) was 100% throughout. In addition, in the data set on Mammalian DPP2, the “inhibition of mammalian DPP2” value was “will inhibit DPP2 only”.

Regarding mercury [Hg], the “inhibition of enzyme activity” value in data set [1] (setting [9]) is given as above 90%. Besides, the “Activity remaining (%) Gly-Pro” value in data set [1] (setting [10]) is 7%; in data set [1] (setting [12]), 5%. Further, the “Activity remaining (%) Lys-Ala” value was 4% in data set [1] (setting [11]) and 2% in data set [1] (setting [13]).

Regarding `N[C@@H](CS)C(=O)O` [Cysteine, cysteine], the “activation of the enzyme by thiol activating agents” value (“activation of the enzyme” below) in data set [1] is listed as “no activation”. In addition, the “Activity remaining (%) Gly-Pro” value in data set [1] (setting [14]) and in data set [1] (setting [10]) was 104% each time. Moreover, the “Activity remaining (%) Lys-Ala” value is 112% in data set [1] (setting [15]) and 105% in data set [1] (setting [11]).

For the compound `CC(C)CC(=O)N[C@H](C(=O)N[C@H](C(=O)N[C@@H](CC(C)C)[C@@H](O)CC(=O)N[C@@H](C)C(=O)N[C@@H](CC(C)C)[C@@H](O)CC(=O)O)C(C)C)C(C)C` [Pepstatin] (Isovaleryl-VV[Sta]A[Sta]-OH), the “effect on enzyme activity (in words)” value in data set [1] (setting [2]) is listed as “not inhibited”. Further, the “Activity remaining (%) Gly-Pro” value in data set [1] (setting [3]) was determined as 108%. The “Activity remaining (%) Lys-Ala” value in data set [1] (setting [4]) is 92%.

Regarding `[Zn]` [Zn, zinc], in data set [1] (1 mM concentration, gly-pro-AMC and lys-ala-AMC as substrates), the “inhibition of enzyme activity” value is listed as above 85%. Moreover, the entries for the “Activity remaining (%) Gly-Pro” value in data set [1] (setting [14]) and in data set [1] (setting [10]) were 80% and 3%, respectively. Besides, the entries for the “Activity remaining (%) Lys-Ala” value in data set [1] (setting [15]) and in data set [1] (setting [11]) were 37% and 14%, respectively.

As to `[Pb]` [Pb, lead], the entries for the “Activity remaining (%) Gly-Pro” value in data set [1] (setting [10]) and in data set [1] (setting [12]) were 109% and 70%, respectively. For the same compound, the “Activity remaining (%) Lys-Ala” value came out at 103% in data set [1] (setting [11]) and 82% in data set [1] (setting [13]).

In the case of `[Mn+2]` [Mn, manganese], the “effect on enzyme activity (in words)” value in data set [1] (setting [2]) is listed as “little effect on enzyme activity”. The “Activity remaining (%) Gly-Pro” value in data set [1] (setting [14]) is 102%; in data set [1] (setting [10]), 66%. Also, the “Activity remaining (%) Lys-Ala” value in data set [1] (setting [15]) was found to be 104%; in data set [1] (setting [11]) it was 66%.

With `O=C(O)CN(CCN(CC(=O)O)CC(=O)O)CC(=O)O` [EDTA], the “effect on enzyme activity (in words)” value in data set [1] is “not inhibited”. For the same compound, in data set [1] (pH 6.8, 2000 µM), the “Activity remaining (%) Gly-Pro” value is reported as 108% and the “Activity remaining (%) Lys-Ala” value is 121%.

Turning to `[Mg+2]` [Mg, magnesium], the “effect on enzyme activity (in words)” value in data set [1] (setting [2]) is listed as “little effect on enzyme activity”. Besides, the “Activity remaining (%) Gly-Pro” value in data set [1] (setting [14]) is 116%; in data set [1] (setting [10]), 78%. Also, the “Activity remaining (%) Lys-Ala” value was determined as 105% in data set [1] (setting [15]) and 76% in data set [1] (setting [11]).

In the case of `[Cd]` [Cd, cadmium], the “inhibition of enzyme activity” value in data set [1] (setting [9]) is given as above 90%. Moreover, the “Activity remaining (%) Gly-Pro” value was 26% in data set [1] (setting [10]) and 6% in data set [1] (setting [12]). Besides, the “Activity remaining (%) Lys-Ala” value in data set [1] (setting [11]) worked out at 19%; in data set [1] (setting [13]) it was 5%.

For bacitracin, in data set [1] (setting [2]), the “effect on enzyme activity (in words)” value was “neither showed any inhibitory effect”. Besides, the “Activity remaining (%) Gly-Pro” value in data set [1] (setting [5]) and in data set [1] (setting [7]) was 100% each time. For the same compound, the “Activity remaining (%) Lys-Ala” value in data set [1] (setting [6]) and in data set [1] (setting [8]) was 100% throughout. Also, the “inhibition of mammalian DPP4” value in the data set on Mammalian DPP4 is recorded as “inhibits DPP4 only”.

Take `OCCS` [2-Mercaptoethanol]: the “activation of the enzyme” value in data set [1] is on record as “no activation”. Also, the “Activity remaining (%) Gly-Pro” value in data set [1] (setting [10]) is reported as 87%. The “Activity remaining (%) Lys-Ala” value in data set [1] (setting [11]) came to 75%.

On to `[Ca+2]` [Ca, calcium], for which the “effect on enzyme activity (in words)” value in data set [1] (setting [2]) is “little effect on enzyme activity”. Moreover, the “Activity remaining (%) Gly-Pro” value in data set [1] (setting [14]) came to 133%; in data set [1] (setting [10]), 57%. Further, the “Activity remaining (%) Lys-Ala” value is on record as 96% in data set [1] (setting [15]) and 62% in data set [1] (setting [11]).

Consider `O=S(=O)(F)Cc1ccccc1` [PMSF, phenylmethyl sulfonyl fluoride], for which, in data set [1] (setting [2]), the “effect on enzyme activity (in words)” value is “inhibited”. Besides, in data set [1] (substance 2 mM, substrate Gly-Pro-AMC), the “Activity remaining (%) Gly-Pro” value is 2%. The “Activity remaining (%) Lys-Ala” value in data set [1] (substance 2 mM, substrate Lys-Ala-AMC) amounted to 3%.

Take `O[C@H](CS)[C@H](O)CS` (racemic) [DTT, dithiothreitol]: the “activation of the enzyme” value in data set [1] is reported as “no activation”. Further, the “Activity remaining (%) Gly-Pro” value amounted to 77% in data set [1] (setting [14]) and 90% in data set [1] (setting [10]). For the same compound, the “Activity remaining (%) Lys-Ala” value is 61% in data set [1] (setting [15]) and 62% in data set [1] (setting [11]).

Consider `N=C(N)c1ccccc1` [Benzamidine], for which the “effect on enzyme activity (in words)” value in data set [1] (setting [2]) is “inhibits the activity”. In addition, the “Activity remaining (%) Gly-Pro” value in data set [1] (setting [10]) worked out at 77%; in data set [1] (setting [12]), 35%; in data set [1] (substance 10 mM, substrate Gly-Pro-AMC), 23%.

Turning to `[Co]` [Co, cobalt], the “inhibition of enzyme activity” value in data set [1] (setting [9]) is listed as above 90%. The “Activity remaining (%) Gly-Pro” value stood at 20% in data set [1] (setting [10]) and 4% in data set [1] (setting [12]). Moreover, the “Activity remaining (%) Lys-Ala” value worked out at 28% in data set [1] (setting [11]) and 6% in data set [1] (setting [13]).

Regarding `[Fe]` [Fe, iron], the “inhibition of enzyme activity” value in data set [1] (setting [9]) is above 90%. For the same compound, the “Activity remaining (%) Gly-Pro” value in data set [1] (setting [10]) was 6%; in data set [1] (setting [12]) it was 2%. Besides, the entries for the “Activity remaining (%) Lys-Ala” value in data set [1] (setting [11]) and in data set [1] (setting [13]) were 5% and 2%, respectively.
